Consider eight compounds from the NIST ThermoML archive (doi:10.1021/acs.jced.7b00114).

± gives the expanded uncertainty stated by the source.

One data set in a line: activity coefficient (dimensionless); of the first substance listed, at infinite dilution; xn = mol fraction of the nth substance listed. Particulars: 278.15 K; 99 kPa; Liquid; Chemical equilibration / Heterogeneous equilibration; x1 = 0.
As to `O` [water] + ClC=C(Cl)Cl, the activity coefficient came out at 1200 ± 130.

The same data set, now with this note: 283.15 K; 99 kPa; Liquid; Chemical equilibration / Heterogeneous equilibration; x1 = 0.
As to `O` [water] + ClC=C(Cl)Cl, the activity coefficient is 978 ± 100.

Still in this data set, the particulars now being: 283.15 K; 100 kPa; Liquid; Chemical equilibration / Heterogeneous equilibration; x1 = 0.
For the compound `O` [water] + Cc1ccccc1, the activity coefficient worked out at 620 ± 57.

The same data set, now with this note: 288.15 K; 99 kPa; Liquid; Chemical equilibration / Heterogeneous equilibration; x1 = 0.
With `O` [water] + ClC=C(Cl)Cl, the activity coefficient is 806 ± 84.

The data set is the same for the next values; noted with them: 293.15 K; 99 kPa; Liquid; Chemical equilibration / Heterogeneous equilibration; x1 = 0.
As to `O` [water] + ClC=C(Cl)Cl, the activity coefficient was found to be 663 ± 69.

Staying with this data set, now noted: 293.15 K; 100 kPa; Liquid; Chemical equilibration / Heterogeneous equilibration; x1 = 0.
For the compound `O` [water] + Cc1ccccc1, the activity coefficient was found to be 423 ± 39.

Staying with this data set, now noted: 298.15 K; 99 kPa; Liquid; Chemical equilibration / Heterogeneous equilibration; x1 = 0.
As to `O` [water] + ClC=C(Cl)Cl, the activity coefficient worked out at 524 ± 54.

Staying with this data set, now noted: 298.15 K; 100 kPa; Liquid; Chemical equilibration / Heterogeneous equilibration; x1 = 0.
On to `O` [water] + Brc1ccccc1, for which the activity coefficient is 367 ± 33.

With `O` [water] + CCOc1ccccc1, the activity coefficient was 110 ± 9.6.

On to `O` [water] + COc1ccc(Br)cc1, for which the activity coefficient turned out to be 119 ± 10.

For the compound `O` [water] + COc1ccccc1, the activity coefficient was 95.3 ± 8.3.

Regarding `O` [water] + Clc1ccccc1, the activity coefficient is 376 ± 34.

As for `O` [water] + FC(F)(F)c1ccccc1, the activity coefficient was 362 ± 33.

Staying with this data set, now noted: 303.15 K; 99 kPa; Liquid; Chemical equilibration / Heterogeneous equilibration; x1 = 0.
`O` [water] + ClC=C(Cl)Cl: the activity coefficient was 441 ± 45.

Staying with this data set, now noted: 303.15 K; 100 kPa; Liquid; Chemical equilibration / Heterogeneous equilibration; x1 = 0.
For the compound `O` [water] + Brc1ccccc1, the activity coefficient was 311 ± 28.

`O` [water] + CCOc1ccccc1: the activity coefficient was 97 ± 8.5.

On to `O` [water] + COc1ccc(Br)cc1, for which the activity coefficient stood at 106 ± 9.3.

Turning to `O` [water] + COc1ccccc1, the activity coefficient amounted to 84.4 ± 7.3.

As for `O` [water] + Cc1ccccc1, the activity coefficient was found to be 300 ± 27.

With `O` [water] + Clc1ccccc1, the activity coefficient was 318 ± 29.

`O` [water] + FC(F)(F)c1ccccc1: the activity coefficient was found to be 302 ± 27.

The data set is the same for the next values; noted with them: 308.15 K; 100 kPa; Liquid; Chemical equilibration / Heterogeneous equilibration; x1 = 0.
For the compound `O` [water] + Brc1ccccc1, the activity coefficient is 264 ± 24.

For `O` [water] + CCOc1ccccc1, the activity coefficient was found to be 87.3 ± 7.6.

Regarding `O` [water] + COc1ccc(Br)cc1, the activity coefficient stood at 93.7 ± 8.2.

In the case of `O` [water] + COc1ccccc1, the activity coefficient turned out to be 75.8 ± 6.6.

With `O` [water] + Clc1ccccc1, the activity coefficient was 271 ± 24.

As for `O` [water] + FC(F)(F)c1ccccc1, the activity coefficient came to 256 ± 23.

The same data set, now with this note: 313.15 K; 100 kPa; Liquid; Chemical equilibration / Heterogeneous equilibration; x1 = 0.
`O` [water] + Brc1ccccc1: the activity coefficient was found to be 226 ± 20.

Take `O` [water] + CCOc1ccccc1: the activity coefficient turned out to be 77.7 ± 6.8.

With `O` [water] + COc1ccc(Br)cc1, the activity coefficient worked out at 83.3 ± 7.3.

As for `O` [water] + COc1ccccc1, the activity coefficient stood at 68.8 ± 6.

For `O` [water] + Cc1ccccc1, the activity coefficient was 214 ± 19.

`O` [water] + Clc1ccccc1: the activity coefficient is 235 ± 21.

`O` [water] + FC(F)(F)c1ccccc1: the activity coefficient is 218 ± 20.

Staying with this data set, now noted: 318.15 K; 100 kPa; Liquid; Chemical equilibration / Heterogeneous equilibration; x1 = 0.
`O` [water] + Brc1ccccc1: the activity coefficient was 189 ± 17.

Take `O` [water] + CCOc1ccccc1: the activity coefficient was determined as 69.9 ± 6.1.

On to `O` [water] + COc1ccc(Br)cc1, for which the activity coefficient is 74.1 ± 6.4.

Take `O` [water] + COc1ccccc1: the activity coefficient stood at 61.7 ± 5.3.

With `O` [water] + Cc1ccccc1, the activity coefficient turned out to be 184 ± 16.

Consider `O` [water] + Clc1ccccc1, for which the activity coefficient is 202 ± 18.

For `O` [water] + FC(F)(F)c1ccccc1, the activity coefficient came to 181 ± 16.

The data set is the same for the next values; noted with them: 323.15 K; 100 kPa; Liquid; Chemical equilibration / Heterogeneous equilibration; x1 = 0.
As for `O` [water] + Brc1ccccc1, the activity coefficient turned out to be 164 ± 15.

`O` [water] + CCOc1ccccc1: the activity coefficient was determined as 62.7 ± 5.4.

On to `O` [water] + COc1ccc(Br)cc1, for which the activity coefficient was 65.5 ± 5.7.

For `O` [water] + COc1ccccc1, the activity coefficient was found to be 55.9 ± 4.8.

In the case of `O` [water] + Cc1ccccc1, the activity coefficient came to 155 ± 14.

For the compound `O` [water] + Clc1ccccc1, the activity coefficient was determined as 177 ± 16.

With `O` [water] + FC(F)(F)c1ccccc1, the activity coefficient worked out at 155 ± 14.

The same data set, now with this note: 328.15 K; 100 kPa; Liquid; Chemical equilibration / Heterogeneous equilibration; x1 = 0.
For `O` [water] + COc1ccccc1, the activity coefficient was determined as 50 ± 4.3.
